In US20220054532A1, “VETERINARY COMPOSITIONS AND METHODS OF USE THEREFOR” (priority 2019, published 2022):

How the values were obtained:
Assay type in all cases: in vivo
[1] = system: dogs suffering from osteoarthritis; assay: Example 1: pain relief and side effects in canine osteoarthritis; settings: dogs with osteoarthritis, 4 weeks of administration, group average
Description: This example examines the ability of various compositions to minimize pain and examines the level of adverse side effects of each composition.
At the outset of the study, participants receive a full physical examination, including weight measurement, thigh circumference, and CBC/blood chemistries. Because osteoarthritis is not only a disease of pain, but one characterized by behavioral, appetite, anxiety/aggression, family socialization, and sleep aberrations, the pet's owners are familiarized with the pain scale (canine orthopedic index) and additional behavioral assessment log.
The patient group is twenty-four dogs suffering from osteoarthritis, broken into eight groups of three dogs. The first group receives a control composition with no active agent; the second group receives a composition comprising HA as the sole active agent; the third group receives a composition comprising HMW HA as the sole active agent; the fourth group receives a composition comprising CBD as the sole active agent; the fifth group receives a composition comprising HA and CBD as the active agents; the sixth group receives a composition comprising HMW HA and CBD as the active agents; the seventh group receives a composition comprising Rimadyl as the active agent; and the eighth group receives a composition comprising Meloxicam as the active agent.
Each composition is administered for a period of four (4) weeks. The owner completes the electronic log questionnaire each week. At the end of the 4-week study, participants have another full physical examination, including weight measurement, thigh circumference, and CBC/blood chemistries, with an exit interview of the owners to gain final impressions.
Each group is evaluated for pain scores and the scores averaged. The following scores are observed and the results depicted in FIG. 1: […]

[2] = system: dogs suffering from cognitive dysfunction syndrome; assay: Example 2: cognitive decline, Cognitive Dysfunction Screening Checklist; settings: for Average Initial Score: day 0 (before treatment); for Average Final Score: day 60, BID
Description: This example examines the ability of embodiments of the invention versus Anipryl® to treat cognitive decline.
The patient group is twenty dogs suffering from cognitive dysfunction syndrome, as determined by the Cognitive Dysfunction Screening Checklist. See G. Landsberg et al., 2003 HANDBOOK OF BEHAVIOR PROBLEMS OF THE DOG AND CAT (Elsevier Science Limited) (2003). The twenty dogs are broken into five groups of four dogs. The first group receives Anipryl® as the sole active agent; the second group receives a composition comprising HMW HA as the sole active agent; the third group receives a composition comprising CBD as the sole active agent; the fourth group receives a composition comprising HMW HA and CBD as the active agents; and the fifth group receives a composition comprising HMW HA, CBD, nicotinamide adenine dinucleotide (“NAD”), and phosphatidylserine as the active agents.
Each composition is administered for a period of sixty (60) days, twice per day (“BID”). The owner completes the Checklist on days 0 (“Initial Score”), 15, 30, 45, and 60 (“Final Score”) of treatment.
Each group is evaluated and Checklist scores averaged. The following scores are observed and the results depicted in FIG. 2: […]

[3] = system: cats suffering behavior aberrations and/or anxiety; assay: Example 5: behavior aberrations and anxiety, Fe-BARQ (feline); settings: Fe-BARQ day 0 vs 60, SID, 0 (no improvement) to 3 (marked improvement)
Description: This example examines the ability of embodiments of the invention versus Clomicalm® to reduce behavior aberrations and anxiety.
The first patient group is twenty dogs suffering behavior aberrations and/or anxiety, as determined by the canine behavioral assessment and research questionnaire (“C-BARQ”). See, e.g., P. Wiener et al., Use of questionnaire-based data to assess dog personality, 16 JOURNAL OF VETERINARY BEHAVIOR 81-85 (2016). The second patient group is twenty cats suffering behavior aberrations and/or anxiety, as determined by the feline behavioral assessment and research questionnaire (“Fe-BARQ”).
Each group is broken into five groups of four animals. The first group receives Clomicalm® as the sole active agent; the second group receives a composition comprising HMW HA as the sole active agent; the third group receives a composition comprising CBD as the sole active agent; the fourth group receives a composition comprising HMW HA and CBD as the active agents; and the fifth group receives a composition comprising HMW HA, CBD, valerian root, and scutillaria as the active agents.
Each composition is administered for a period of sixty (60) days, once a day (“SID”). Owners complete the species-appropriate C-BARQ or Fe-BARQ on days 0 and 60 of treatment. The results from the overall questionnaire are averaged and characterized as no improvement (score of 0), mild improvement (score of 1), moderate improvement (score of 2), or marked improvement (score of 3).
The following feline scores are observed and the results depicted in FIG. 5b: […]

[4] = system: dogs with a history of severe, chronic skin issues, atopy, pruritis, yeast overgrowth, and/or infection; assay: Example 8: skin conditions (itch score) and side effects in dogs; parameters: Average Side Effect Score: scale not given here; settings: for Average Side Effect Score: dogs with skin conditions, 60 days BID; for Initial Itch Score / Final Itch Score: itch scale 0 (no itching) to 10 (extremely severe); for Initial Itch Score: day 0; for Final Itch Score: day 60, BID
Description: (§1) This example examines the ability of embodiments of the invention versus prednisone to treat skin conditions.
(§2) The patient group is twenty-four dogs with a history of severe, chronic skin issues, atopy, pruritis, yeast overgrowth, and/or infection, as diagnosed by their referring veterinarian. The patient group is broken into six groups of four animals. The first group receives prednisone as the sole active agent; the second group receives a composition comprising prednisone and HMW HA as the active agents; the third group receives a composition comprising HMW HA as the sole active agent; the fourth group receives a composition comprising CBD as the sole active agent; the fifth group receives a composition comprising HMW HA and CBD as the active agents; and the sixth group receives a composition comprising HMW HA, CBD, quercetin, and nettles as the active agents.
(§3) Each composition is administered for a period of sixty (60) days, BID. Each dog is evaluated on days 0 (“Initial Score”), 20, 40, and 60 (“Final Score”) of treatment. The results are averaged and characterized on a scale of 0 (no itching—normal dog), 2 (very mild itching—only occasional episodes), 4 (mild itching), 6 (moderate itching—regular episodes), 8 (severe itching—prolonged episodes), to 10 (extremely severe itching—almost continuous).
The following scores are observed and the results depicted in FIG. 8: […]

[5] = system: dogs with a history of severe, chronic skin issues, atopy, pruritis, yeast overgrowth, and/or infection; assay: Example 16: skin conditions (itch score) and side effects in dogs (CBD Complex); settings: for Average Side Effect Score: dogs with skin conditions, 60 days BID; for Initial Itch Score / Final Itch Score: itch scale 0 (no itching) to 10 (extremely severe); for Initial Itch Score: day 0; for Final Itch Score: day 60, BID
Description: as §1
as §2, with “and CBD Complex as the” for “and CBD as the”, “HMW HA, CBD Complex, quercetin, and” for “HMW HA, CBD, quercetin, and”
as §3

Compound: C=C(C)[C@@H]1CCC(C)=C[C@H]1c1c(O)cc(CCCCC)cc1O [CBD Alone, 2-[(1R,6R)-3-methyl-6-prop-1-en-2-ylcyclohex-2-en-1-yl]-5-pentylbenzene-1,3-diol]
- Average Pain Score [1]: 19
- Average Side Effect Score [1]: 0.5
- Average Pain Score ([1]; listed as CBD alone): not especially effective in reducing pain
- Average Side Effect Score ([1]; listed as CBD alone): even lower degree of adverse side effects
- Average Initial Score [2]: 3
- Average Final Score [2]: 1.5
- Improvement Score [3]: 1.8
- Average Side Effect Score [4]: .5
- Initial Itch Score [4]: 9
- Final Itch Score [4]: 5
- Average Side Effect Score [5]: .5
- Initial Itch Score [5]: 9
- Final Itch Score [5]: 5

Compound: hyaluronic acid [HMW HA Alone]
- Average Pain Score [1]: 16
- Average Side Effect Score [1]: 4
- Average Pain Score ([1]; listed as HMW HA alone): only slightly reduce pain
- Average Side Effect Score ([1]; listed as HMW HA alone): low degree of adverse side effects
- Average Initial Score [2]: 3
- Average Final Score [2]: 2
- Improvement Score [3]: 1
- Average Side Effect Score [4]: 4
- Initial Itch Score [4]: 9
- Final Itch Score [4]: 7
- Average Side Effect Score [5]: 4
- Initial Itch Score [5]: 9
- Final Itch Score [5]: 7
